The data set is described as follows: Low temperature (cold storage) stability testing, CIPAC Method 39.3 (1999). It is filed as physicochemical. Particulars: for cold temperature stability at 0° C.: 750 g/L Dicamba (based on acid equivalent); for cold storage / low temperature stability at 0° C.: Dicamba 800 g/L acid equivalent. The method, then:
Compositions described in the Examples were examined by the CIPAC Method 39.3 (1999) the procedure of which is noted below.
Transfer 100±1.0 ml of the formulation to the tube and insert the stopper. Cool to 0±2° C. in the refrigerator (Note 2). If the sample contains a dissolved crystalline pesticide, remove the tube from the refrigerator after 24 hours, take off the stopper, add a small crystal of the pure or technical pesticide (Note 3) and replace the stopper. Replace the tube in the refrigerator and allow it to remain at 0±2° C. for a total period of 7 days (Note 4).
At the end of this time, note the volume and nature of any separated material. If the liquid phase is not homogeneous, note the volume of each layer. If there is any separated material, then allow the tube to reach room temperature over a period of 24 hours (Note 5), invert once and again note the volume and nature of any separated material. • Note 1 A domestic refrigerator is often unsuitable because the on/off cycle may cover a range larger than 4° C. • Note 2 Alternatively a graduated emulsion tube meeting BS 658 class B, type 1 (Crow Receiver) may be used. • Note 3 A crystal from the commercial manufacturing process is preferred. Alternatively a crystal separated from the formulation e.g. by distillation of the solvent may be used. • Note 4 Other temperature-storage period combinations may be specified. • Note 5 Room temperature being defined as 23±2° C. Note any temperature outside this range.
Low temperature stability testing was carried out in accordance with the Standard CIPAC Method 39.3 (1999) and the resulting percentage crystallisation is reported in Table 3.

SMILES strings stand for the structures.

For the molecule `CN.COc1c(Cl)ccc(Cl)c1C(=O)O` [MMA salt], the “cold temperature stability at 0° C.” value is “not stable” and the “cold storage / low temperature stability at 0° C.” value was “Neither of the individual DMA or MMA salts were stable”.

For the molecule `CNC.COc1c(Cl)ccc(Cl)c1C(=O)O` [DMA salt], the “cold temperature stability at 0° C.” value is reported as “not stable” and the “cold storage / low temperature stability at 0° C.” value is “Neither of the individual DMA or MMA salts were stable”.

The values above are taken from patent US8871683B2, “Dicamba herbicide composition” (Nufarm Australia Limited, priority 2008, dated 2014).
